Results: US20040043420A1, “Method of identifying conformation-sensitive binding peptides and uses thereof” (priority 2003, published 2004)

Legend:
androgen receptor [1] = target: T1, androgen receptor (Homo sapiens, UniProt P10275); experiment: Yeast two-hybrid screening of unbiased X15 peptide library, ligand-induced β-galactosidase activity (FIG. 3, Table 503); assay type: cell-based; parameters: expressed in transfected cells; host or cells: Saccharomyces cerevisiae PJ69-4α; details: for Yeast Specificity Graph (FIG. 3): CPA: ligand CPA; for Yeast Specificity Graph (FIG. 3): DHT: ligand DHT; for Yeast Specificity Graph (FIG. 3): RU: ligand RU; for Yeast Specificity Graph (FIG. 3): No Lig: no ligand; for Yeast Specificity Graph (FIG. 3): MPA: ligand MPA; for Yeast Specificity Graph (FIG. 3): Test: ligand Test
T1 sequence (P10275 1-920): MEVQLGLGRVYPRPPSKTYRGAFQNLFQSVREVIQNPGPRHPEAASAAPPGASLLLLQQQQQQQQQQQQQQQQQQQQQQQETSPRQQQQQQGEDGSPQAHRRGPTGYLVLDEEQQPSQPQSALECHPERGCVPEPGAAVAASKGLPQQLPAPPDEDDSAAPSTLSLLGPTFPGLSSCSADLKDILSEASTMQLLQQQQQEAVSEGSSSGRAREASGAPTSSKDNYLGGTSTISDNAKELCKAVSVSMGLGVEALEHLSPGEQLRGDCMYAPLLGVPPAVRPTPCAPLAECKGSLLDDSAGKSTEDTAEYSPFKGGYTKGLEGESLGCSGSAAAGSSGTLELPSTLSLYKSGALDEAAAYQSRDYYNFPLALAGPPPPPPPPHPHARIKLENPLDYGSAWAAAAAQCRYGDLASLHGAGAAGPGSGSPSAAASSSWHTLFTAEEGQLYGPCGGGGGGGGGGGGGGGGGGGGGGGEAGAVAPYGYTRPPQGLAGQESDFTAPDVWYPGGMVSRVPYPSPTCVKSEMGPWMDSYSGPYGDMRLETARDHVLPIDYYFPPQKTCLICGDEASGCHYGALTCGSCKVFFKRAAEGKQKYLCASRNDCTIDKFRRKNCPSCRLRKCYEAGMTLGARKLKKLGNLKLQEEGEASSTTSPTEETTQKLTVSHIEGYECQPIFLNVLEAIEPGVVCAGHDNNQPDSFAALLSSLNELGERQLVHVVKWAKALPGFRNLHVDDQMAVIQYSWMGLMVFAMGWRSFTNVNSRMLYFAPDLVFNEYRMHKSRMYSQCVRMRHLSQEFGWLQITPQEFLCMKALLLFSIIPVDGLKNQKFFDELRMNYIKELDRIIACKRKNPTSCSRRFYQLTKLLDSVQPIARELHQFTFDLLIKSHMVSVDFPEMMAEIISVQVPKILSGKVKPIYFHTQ
Text: Our library contained predominantly 15 random amino acid residues/peptide in order to identify motifs that might interact with nuclear receptor domains. If ligand is provided to the cells, one can screen for peptides that interact with the ligand-bound receptor. […] Included at the ends of the oligonucleotide were the synthetic restriction endonuclease cleavage sites, EcoRI or Mfe I (5′ end) and Sal I (3′ end). Oligonucleotides were annealed, then cleaved with excess restriction endonuclease and purified on agarose gels. The purified set of oligonucleotides was subcloned as an in-frame carboxy-terminal fusion to a Gal4 DNA binding domain (plasmid vector pMA424 derivative). […] The transformation mix was divided and grown on plates of selective media containing ligand and 25 mM 3-aminotriazole at 30° C. until colonies appeared in 3-7 days. […] Dihydrotestosterone (DHT) and medroxyprogesterone (MPA) were added to the media at 100 nM to identify peptides that interact with the receptor in the presence of ligand. After colonies appeared they were picked and dispersed into individual wells of a 96-well plate containing rich media (YPD).
To determine ligand dependence, two microliter aliquots were removed from the cell suspension, and arrayed and spotted onto each of two rectangular agar plates, one with 100 nM ligand and one without ligand. Growth was monitored daily.
A secondary test of ligand dependent activation was performed using the integrated GAL4-driven lacZ gene. Cell suspensions of the initial positive clones were diluted 20-fold into 20 microliters of rich media in a microplate and grown overnight at 30° C. in the presence and absence of ligand. Microplates were centrifuged for 5 minutes at 3000 rpm in a swinging table top centrifuge to pellet the yeast cells, and the overlying media was aspirated. […] An OD650 density determination was made to normalize the β-galactosidase activity. β-galactosidase activity was monitored following the addition of buffer containing chlorophenol red-1-galactopyranoside (CPRG) (Boehringer Mannheim) substrate at a final concentration of 0.5 mM. […] The maximum slope value of this measurement was normalized to cell density from the initial OD650 value, and the relative ligand dependence of β-galactosidase was determined by comparing the values plus and minus ligand.
In FIG. 3, all of these ligands were tested. The plasmids from true positives were extracted using standard yeast extraction protocols and re-transformed to verify the positive phenotype.

androgen receptor [2] = target: T1, androgen receptor; assay type: cell-based; parameters: expressed in transfected cells; details: for Mammalian Cell Specificity Graph (FIG. 4): DHT: ligand DHT; for Mammalian Cell Specificity Graph (FIG. 4): MPA: ligand MPA; for Mammalian Cell Specificity Graph (FIG. 4): RU486: ligand RU486
Text: We used a mammalian two-hybrid system to determine specificities of the AR-binding peptides previously identified, through screening of the aforementioned yeast library, as ligand-dependent in their binding activity. Ligand was provided to the cells so the interaction could be observed. The human hepatoma cell line, Huh-7, was used as the recipient of two-hybrid vectors, pM and pVP16 (Clontech) (FIGS. 6A and 6B), containing fusions with peptide and AR, respectively. According to Clontech literature, the Clontech vectors pM and VP16 generate fusions of protein X with the GAL4 DNA-BD and fusions of protein Y with the VP16AD, in the Mammalian MM Two-Hybrid Assay Kit (#K1602-1). (Note: pM and VP16 contain unique cloning sites in the same order and reading frame as the DNA-BD and AD, respectively, vectors in the yeast […] Two-Hybrid Systems.) A third vector, pG5CAT, provides a CAT reporter gene under the control of a GAL4-responsive element and minimal promoter of the adenovirus E1b. The three vectors are cotransfected into any suitable mammalian host cell line by standard methods. The interaction between proteins X and Y is then assayed by measuring CAT gene expression by any standard method. In the absence-of activation (i.e., no protein-protein interaction), the minimal E1b promoter will not express significant levels of CAT.
Briefly, cells are seeded in a 24-well culture plate to a density of 50-80% confluence in phenol red-free media containing charcoal-dextran stripped fetal bovine serum (10%). Following incubation overnight, cells are transfected with plasmids pM-peptide, pVP16-AR, pCMV-b-gal, and p5XGAL-Luc3 DNAs using lipofectamine 2000 (LifeTech) according to the manufacturer's protocol. Transfections are allowed to proceed for 6 hours and the transfection media is aspirated and replaced with recovery media for 18 hours. Following the recovery period, cells are treated with compound for 24 hours prior to cell harvesting. Cells are washed with PBS and then lysed using the lysis buffer from the Galacto-Light Plus β-galactosidase assay kit (Tropix). Assays for luciferase and β-galactosidase were performed as described by the manufacturer. Peptide/AR interactions are described in terms of the luciferase activity normalized for transfection efficiency using β-galactosidase activity (see FIG. 4A). Two types of useful information arose from these methods: 1) we generated a panel of useful peptide probes to analyze the conformational state of AR, and 2) we “fingerprinted” AR modulators with respect to AR conformation (FIG. 4B). […] FIG. 4B is the converse of 4A. It compares the ability of six ligands (DHT, MPA, CYP, RU486, FLUT and DHEAs to interact with AR in the presence of each of four peptides (D30, 5G11, B8H3 and […]). Thus, it is a “fingerprint” of each of the six ligands using a four peptide panel. (Note that “1269” and D30″ refer to the same peptide.)

Substance | Fold induction (androgen receptor [1]) | Yeast Specificity Graph (FIG. 3): CPA (androgen receptor [1]) | Yeast Specificity Graph (FIG. 3): DHT (androgen receptor [1]) | Yeast Specificity Graph (FIG. 3): RU (androgen receptor [1]) | Yeast Specificity Graph (FIG. 3): No Lig (androgen receptor [1]) | Mammalian Cell Specificity Graph (FIG. 4): CYP. (androgen receptor [2]) | Mammalian Cell Specificity Graph (FIG. 4): DHT (androgen receptor [2]) | Mammalian Cell Specificity Graph (FIG. 4): MPA (androgen receptor [2]) | Mammalian Cell Specificity Graph (FIG. 4): RU486 (androgen receptor [2]) | Mammalian Cell Specificity Graph (FIG. 4): no compound (androgen receptor [2]) | Yeast Specificity Graph (FIG. 3): MPA (androgen receptor [1]) | Yeast Specificity Graph (FIG. 3): Test (androgen receptor [1])
EFHSRLRVEVVSWGIGSTCSQANSGRISYDL* [B8H3] | 22 | 0.3927 | 3.807 | −0.0 | 0.1737 | 10.47 Relative Light Units | 11.6 Relative Light Units | 11.33 Relative Light Units | 3.879 Relative Light Units | 0.1316 Relative Light Units | – | –
EFRFPFHEMVREWESMGLERVRYAEP [M4D1] | – | −0.03955 | 0.3948 | 0.1 | 0 | – | – | – | – | – | 1.698 | 0.1337
HPTHSSRLWELLMEATPTM [D30] | – | – | – | – | – | 11.18 Relative Light Units | 12.59 Relative Light Units | 15.62 Relative Light Units | 0.8461 Relative Light Units | 0.03854 Relative Light Units | – | –
EFRQSFVSEILGGGWLPLDLOPS [M2H3] | 10 | 8.592 | 24.12 | 6.8 | 2.53 | – | – | – | – | – | 19.25 | 26.57
EFRSSVFEQMYLCTGGSLDLOPS* [B5G11] | – | 0.9726 | 3.964 | 0.9 | 0.6382 | 4.462 Relative Light Units | 15.84 Relative Light Units | 8.029 Relative Light Units | 0.1051 Relative Light Units | 0.05028 Relative Light Units | – | –
